Patent US10183949B2, “Pyrimidinone derivative having autotaxin-inhibitory activity” (The University of Tokyo, priority 2014, dated 2019)

These molecules were tested against T1, Human autotaxin enzyme (Homo sapiens, UniProt Q13822) (assay: Evaluation of autotaxin inhibitor, 18:0 Lyso PC / choline assay (Test Example 2)). Conditions: autotaxin inhibition, IC50 class; read-out: Inhibitor activity.
T1 construct: purchased R&D System
Assay type: biochemical
Procedure: Solution B containing 100 mM Tris-HCl buffer (pH7.5), 150 mM NaCl, 5 mM MgCl2, and 0.05% Triton X-100 was prepared. Human autotaxin enzyme (purchased from R&D System) was diluted with Solution B, and 2.5 μl of which was added to a solution of test compound in DMSO. Furthermore, 2.5 μl of 200 μM 18:0 Lyso PC (purchased from Avanti Polar Lipids) in Solution B was added and allowed to react at room temperature for 2 hours. After completion of the reaction, 15 μl of the coline assay reagent. (100 mM Tris-HCl buffer (pH7.5), 5 mM. MgCl2, 77 μg/ml coline oxidase, 10 μg/ml peroxydase, 25μM 10-acetyl-3,7-dihydroxyphenoxazine, and excess autotaxin inhibitor) was added and allowed to react at room temperature for 20 minutes. The fluorescent dye Resorufin, which was produced by the reaction, was detected. The fluorescence was detected using ViewLux
(PerkinElmer, Inc.) with a excitation wavelength of 531 nm and a fluorescence wavelength of 598 nm.
The percent inhibition of the test compound was calculated by assuming the sample with no test compound as 0% inhibition and the sample with no enzyme as 100% inhibition, and the percent inhibitions at different concentrations of the test compound were plotted to obtain a concentration-dependent curve.

Row | IC50 [µM] | SMILES
1 | ≥ 1 | CC(=O)Nc1cc(Cl)ccc1-c1cc(=O)n(CC(=O)O)c(C)n1 [Compound I-0247]

Same assay, conditions: human autotaxin enzyme, 18:0 Lyso PC substrate, choline assay, room temperature 2 hours; read-out: Inhibitor activity (IC50)

Row | IC50 [µM] | SMILES
2 | ≥ 1 | Cc1nc(-c2ccc(C#N)cc2NC(=O)C(C)(C)C)cc(=O)n1CC(=O)O [Compound I-0260]
3 | < 0.01 | CNS(=O)(=O)CCNC(=O)Cn1c(C)nc(-c2ccc(Cl)cc2NC(=O)OC)cc1=O [Compound I-0465]
4 | 0.1 to 1 | O=C(O)c1cccc(Cn2c(CCCC(F)(F)F)nc(-c3ccc(Cl)cc3)cc2=O)n1 [Compound I-0289]
5 | 0.01 to 0.1 | CCCCCc1nc(-c2ccc(Cl)cc2)cc(=O)n1CC(=O)NCC(=O)N1CCC(C(=O)O)CC1 [Compound I-0059]
6 | 0.1 to 1 | CCS(=O)(=O)N1CCN(C(=O)Cn2cnc(-c3ccc(Cl)cc3NC(=O)C(C)(C)C)cc2=O)CC1 [Compound I-0490]
7 | < 0.01 | COC(=O)Nc1cc(Cl)ccc1-c1cc(=O)n(Cc2cccc(-c3nc(=O)o[nH]3)c2)c(C)n1 [Compound I-0379]
8 | 0.1 to 1 | CCCCCNc1nc(-c2ccc(C(F)(F)F)cc2)cc(=O)n1Cc1ccc(C(=O)NC(Cc2ccccc2)C(=O)O)cc1 (centres unmarked) [Compound I-0017]
9 | 0.01 to 0.1 | NC(=S)C1CCN(C(=O)Cn2c(CCCC(F)(F)F)nc(-c3ccc(C(F)(F)F)cc3)cc2=O)CC1 [Compound I-0353]
10 | 0.01 to 0.1 | CC(C)(C)C(=O)Nc1cc(Cl)ccc1-c1cc(=O)n(Cc2cccc(C(=O)N3CCC(O)CC3)c2)cn1 [Compound I-0489]
11 | ≥ 1 | CC(C)(C)N1CCN(c2cc(=O)n(CC(=O)NC3(C#N)CC3)c(CCCC(F)(F)F)n2)CC1 [Compound I-0239]
12 | ≥ 1 | Cc1nc(-c2ccc(Cl)cc2NC(=O)C2CC2)cc(=O)n1CC(=O)O [Compound I-0259]
13 | 0.1 to 1 | CCCCCc1nc(-c2ccc(Cl)cc2)cc(=O)n1CC(=O)N(C)CCO [Compound I-0029]
14 | 0.01 to 0.1 | COC(=O)c1ccc(Cn2c(CCCC(F)(F)F)nc(-c3ccc(Cl)cc3)cc2=O)o1 [Compound I-0291]
15 | 0.01 to 0.1 | CCCCCc1nc(-c2ccc(Cl)cc2)cc(=O)n1CC(=O)NC(CC(=O)O)c1ccccc1 (centres unmarked) [Compound I-0061]
16 | 0.1 to 1 | COC1CCN(c2cc(=O)n(CC(=O)NC3(C#N)CC3)c(CCCC(F)(F)F)n2)CC1 [Compound I-0238]
17 | 0.1 to 1 | CCCCCc1nc(-c2ccc(Cl)cc2)cc(=O)n1CC(=O)N1CCCCC1C(=O)O (centres unmarked) [Compound I-0049]
18 | 0.01 to 0.1 | COC(=O)Nc1cc(Cl)ccc1-c1cc(=O)n(CC(=O)NCC2(CO)CC2)c(C)n1 [Compound I-0275]
19 | 0.1 to 1 | CC(C)CC1CCN(c2cc(=O)n(CC(=O)NC3(C#N)CC3)c(CCCC(F)(F)F)n2)C1 (centres unmarked) [Compound I-0240]
20 | 0.1 to 1 | CCCCCc1nc(-c2ccc(Cl)cc2)cc(=O)n1CC(=O)NCC1CCC(=O)NC1 (centres unmarked) [Compound I-0037]
21 | 0.01 to 0.1 | Cc1nc(-c2ccc(Cl)cc2NC(=O)C(C)(C)C)cc(=O)n1CC(=O)Nc1cccnc1O [Compound I-0310]
22 | 0.01 to 0.1 | CCNC(=O)N1CCC(NC(=O)Cn2c(CCCC(F)(F)F)nc(-c3ccc(Cl)cc3)cc2=O)CC1 [Compound I-0128]
23 | 0.01 to 0.1 | O=C(Cn1c(CCCC(F)(F)F)nc(-c2ccc(C(F)(F)F)cc2)cc1=O)NCC1CCO1 (centres unmarked) [Compound I-0318]
24 | 0.01 to 0.1 | O=C(Cn1c(CCCC(F)(F)F)nc(-c2ccc(Cl)cc2CO)cc1=O)NCC1(CO)COC1 [Compound I-0334]
25 | 0.01 to 0.1 | CCCCCc1nc(-c2ccc(Cl)cc2)cc(=O)n1CC(=O)NCC1(CO)CC1 [Compound I-0033]
26 | < 0.01 | COC(=O)Nc1cc(Cl)ccc1-c1cc(=O)n(CC(=O)NCc2cc(=O)[nH]o2)c(C)n1 [Compound I-0439]
27 | 0.01 to 0.1 | COC(=O)c1cccc(Cn2c(CCCC(F)(F)F)nc(-c3ccc(Cl)cc3)cc2=O)c1 [Compound I-0111]

Row | IC50 [µM] | SMILES
28 | 0.01 to 0.1 | CSc1nc(-c2ccc(Cl)cc2NC(=O)C(C)(C)C)cc(=O)n1CC(=O)NC1(C#N)CC1 [Compound I-0316]
29 | 0.01 to 0.1 | COC(=O)Nc1cc(C#N)ccc1-c1cc(=O)n(CC(=O)OC(C)(C)C#N)c(C)n1 [Compound I-0373]
30 | 0.01 to 0.1 | COC(=O)Nc1cc(C#N)ccc1-c1cc(=O)n(CC(=O)NCC(C)(C)O)c(C)n1 [Compound I-0399]
31 | 0.01 to 0.1 | O=C(Cn1c(CCCC(F)(F)F)nc(-c2ccc(C(F)(F)F)cc2)cc1=O)N1CCN(CCO)CC1 [Compound I-0346]
32 | 0.1 to 1 | CC(C)(C)C(=O)Nc1cc(Cl)ccc1-c1cc(=O)n(CC(=O)Nc2cnccc2O)cn1 [Compound I-0447]
33 | 0.1 to 1 | O=C(NCC1(CO)COC1)c1ccc(Cn2c(CCCC(F)(F)F)nc(-c3ccc(Cl)cc3)cc2=O)o1 [Compound I-0355]
34 | 0.01 to 0.1 | CNC(=O)NC1CCN(C(=O)Cn2c(C)nc(-c3ccc(C#N)cc3NC(=O)OC)cc2=O)CC1 [Compound I-0381]
35 | 0.1 to 1 | CCCCCNc1nc(-c2ccc(C(F)(F)F)cc2)cc(=O)n1Cc1cccc(C(=O)NCCC(=O)O)c1 [Compound I-0016]
36 | 0.1 to 1 | COCCCNC(=O)c1cccc(Cn2c(CCCC(F)(F)F)nc(-c3ccc(Cl)cc3)cc2=O)c1 [Compound I-0161]
37 | 0.01 to 0.1 | COC(=O)Nc1cc(C#N)ccc1-c1cc(=O)n(CC(=O)NCC2(CO)CC2)c(C)n1 [Compound I-0417]
38 | 0.1 to 1 | CCCCCc1nc(-c2ccc(Cl)cc2)cc(=O)n1CC(=O)N(C)Cc1ccccc1 [Compound I-0036]
39 | 0.1 to 1 | CCCCCc1nc(-c2ccc(Cl)cc2)cc(=O)n1CC(=O)NCc1cccc(=O)n1C [Compound I-0038]
40 | 0.1 to 1 | CCCCCc1nc(-c2ccc(Cl)cc2)cc(=O)n1CC(=O)N1CCCC(c2ccc(C(=O)O)cc2)C1 (centres unmarked) [Compound I-0047]
41 | 0.01 to 0.1 | CS(=O)(=O)N1CCN(C(=O)Cn2c(CCCC(F)(F)F)nc(-c3ccc(C(F)(F)F)cc3)cc2=O)CC1 [Compound I-0359]
42 | 0.01 to 0.1 | O=C(Cn1c(CCCC(F)(F)F)nc(-c2ccc(C(F)(F)F)cc2)cc1=O)N1CCC(N2CCNC2=O)CC1 [Compound I-0362]
43 | < 0.01 | COC(=O)Nc1cc(Cl)ccc1-c1cc(=O)n(CC(=O)N2CCC(c3nc(=O)o[nH]3)CC2)c(C)n1 [Compound I-0482]
44 | 0.01 to 0.1 | CCCCCc1nc(-c2ccc(Cl)cc2)cc(=O)n1CC(=O)NCC(C)(C)O [Compound I-0098]
45 | < 0.01 | Cc1nc(-c2ccc(C#N)cc2NC(=O)C2CC2)cc(=O)n1Cc1cccc(C(=O)O)c1 [Compound I-0271]
46 | 0.01 to 0.1 | CCCCCc1nc(-c2ccc(Cl)cc2)cc(=O)n1CC(=O)N1CCC(c2cccc(C(=O)O)c2)CC1 [Compound I-0053]
47 | ≥ 1 | CCCCCc1nc(-c2ccc(Cl)cc2)cc(=O)n1CC(=O)N1CCCC1C(=O)O (centres unmarked) [Compound I-0068]
48 | 0.01 to 0.1 | Cc1nc(-c2ccc(Cl)cc2NC(=O)C2CC2)cc(=O)n1CC(=O)NC(C)C [Compound I-0391]
49 | 0.1 to 1 | CN(CC#N)C(=O)c1cccc(Cn2c(CCCC(F)(F)F)nc(-c3ccc(Cl)cc3)cc2=O)c1 [Compound I-0155]
50 | 0.01 to 0.1 | CCCCCc1nc(-c2ccc(Cl)cc2)cc(=O)n1CC(=O)NC1COC1 [Compound I-0028]
51 | 0.1 to 1 | CCS(=O)(=O)N1CCC(NC(=O)Cn2c(CCCC(F)(F)F)nc(-c3ccc(C(F)(F)F)cc3)cc2=O)CC1 [Compound I-0370]
52 | 0.01 to 0.1 | CC(O)CNC(=O)Cn1c(CCCC(F)(F)F)nc(-c2ccc(C(F)(F)F)cc2)cc1=O (centres unmarked) [Compound I-0303]
53 | 0.1 to 1 | CC(C)(C)C(=O)Nc1cc(Cl)ccc1-c1cc(=O)n(CC(=O)NCC(N)=O)cn1 [Compound I-0409]
